Results as given in patent publication US20210255193A1, “LYSINE REACTIVE PROBES AND USES THEREOF” (The Scripps Research Institute, priority 2017, published 2021).
Blank lines part the entries; values can stand above or below the compound they belong to.

Columns and labels:
Assay in all cases: competitive isoTOP-ABPP
Type in all cases: binding
[1] = molecular target: T1, ATP6V1F V-type proton ATPase subunit F (Homo sapiens, UniProt Q16864); details: for isoTOP-ABPP ratio (R) at liganded lysine Q16864_K6 / isoTOP-ABPP reactivity ratio at lysine Q16864_K6: 50 uM, in vitro; for isoTOP-ABPP ratio (R) at liganded lysine Q16864_K6: sol, 231; for isoTOP-ABPP reactivity ratio at lysine Q16864_K6: 231 sol
T1 construct: isoTOP-ABPP experiments performed in cell lysates (in vitro); endogenous in cells; host or cells: soluble proteome of human cancer cell lines (MDA-MB-231; Ramos and Jurkat also prepared)
T1 sequence (Q16864 whole entry): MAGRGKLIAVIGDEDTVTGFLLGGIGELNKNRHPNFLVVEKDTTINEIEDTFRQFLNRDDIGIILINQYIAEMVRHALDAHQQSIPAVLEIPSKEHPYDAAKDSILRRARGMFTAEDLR
In short: (§1)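 Here, isoTOP-ABPP measures loss of STP-alkyne labeling at individual lysines after fragment exposure in lysate. Activated esters are dosed at 50 μM, guanidinylating agents at 100 μM; the probe follows at 0.1 mM for 1 h. R ≥4 marks a liganded lysine.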

[2] = molecular target: T2, CDK2 Cyclin-dependent kinase 2 (Homo sapiens, UniProt P24941); details: for isoTOP-ABPP ratio (R) at liganded lysine P24941_K33 / isoTOP-ABPP reactivity ratio at lysine P24941_K33: 50 uM, in vitro; for isoTOP-ABPP ratio (R) at liganded lysine P24941_K33: sol, 231; for isoTOP-ABPP reactivity ratio at lysine P24941_K33: 231 sol
T2 construct: isoTOP-ABPP experiments performed in cell lysates (in vitro); endogenous in cells; host or cells: soluble proteome of human cancer cell lines (MDA-MB-231; Ramos and Jurkat also prepared)
In short: as §1

[3] = molecular target: T3, EEF1G Elongation factor 1-gamma (Homo sapiens, UniProt P26641); details: for isoTOP-ABPP ratio (R) at liganded lysine P26641_K227 / isoTOP-ABPP reactivity ratio at lysine P26641_K227: 50 uM, in vitro; for isoTOP-ABPP ratio (R) at liganded lysine P26641_K227: sol, 231; for isoTOP-ABPP reactivity ratio at lysine P26641_K227: 231 sol
T3 construct: isoTOP-ABPP experiments performed in cell lysates (in vitro); endogenous in cells; host or cells: soluble proteome of human cancer cell lines (MDA-MB-231; Ramos and Jurkat also prepared)
T3 sequence (P26641 whole entry): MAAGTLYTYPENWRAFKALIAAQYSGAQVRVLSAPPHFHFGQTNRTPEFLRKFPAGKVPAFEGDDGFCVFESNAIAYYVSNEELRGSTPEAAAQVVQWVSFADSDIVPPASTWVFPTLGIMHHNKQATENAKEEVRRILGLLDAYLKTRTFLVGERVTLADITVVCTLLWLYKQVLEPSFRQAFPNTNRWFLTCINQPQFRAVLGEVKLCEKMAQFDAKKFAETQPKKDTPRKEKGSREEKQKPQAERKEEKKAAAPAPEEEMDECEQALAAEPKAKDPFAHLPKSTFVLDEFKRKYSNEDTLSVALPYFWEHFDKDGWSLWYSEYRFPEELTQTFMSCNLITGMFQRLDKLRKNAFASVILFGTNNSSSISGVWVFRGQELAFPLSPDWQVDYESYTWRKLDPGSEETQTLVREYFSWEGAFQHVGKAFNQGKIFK
In short: as §1

[4] = molecular target: T4, IMPDH1 Inosine-5-monophosphate dehydrogenase 1 (Homo sapiens, UniProt P20839); details: for isoTOP-ABPP ratio (R) at liganded lysine P20839_K208 / isoTOP-ABPP reactivity ratio at lysine P20839_K208: 50 uM, in vitro; for isoTOP-ABPP ratio (R) at liganded lysine P20839_K208: sol, 231; for isoTOP-ABPP reactivity ratio at lysine P20839_K208: 231 sol
T4 construct: isoTOP-ABPP experiments performed in cell lysates (in vitro); endogenous in cells; host or cells: soluble proteome of human cancer cell lines (MDA-MB-231; Ramos and Jurkat also prepared)
T4 sequence (P20839 whole entry): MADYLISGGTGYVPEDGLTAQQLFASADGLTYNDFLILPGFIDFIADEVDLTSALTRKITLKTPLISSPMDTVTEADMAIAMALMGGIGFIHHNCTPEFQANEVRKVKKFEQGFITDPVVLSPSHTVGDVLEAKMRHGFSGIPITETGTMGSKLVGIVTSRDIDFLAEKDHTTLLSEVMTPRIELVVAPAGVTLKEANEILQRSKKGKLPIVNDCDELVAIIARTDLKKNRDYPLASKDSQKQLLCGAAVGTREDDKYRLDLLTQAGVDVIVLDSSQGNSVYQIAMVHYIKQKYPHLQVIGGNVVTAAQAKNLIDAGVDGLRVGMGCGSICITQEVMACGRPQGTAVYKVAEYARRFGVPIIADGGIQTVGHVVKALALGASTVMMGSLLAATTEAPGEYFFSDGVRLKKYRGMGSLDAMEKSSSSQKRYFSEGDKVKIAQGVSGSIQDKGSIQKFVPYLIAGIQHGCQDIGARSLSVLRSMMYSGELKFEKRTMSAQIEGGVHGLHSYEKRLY
In short: as §1

[5] = molecular target: T5, LRRC20 Leucine-rich repeat-containing protein 20 (Homo sapiens, UniProt Q8TCA0); details: for isoTOP-ABPP reactivity ratio at lysine Q8TCA0_K43: 231 sol
T5 construct: isoTOP-ABPP experiments performed in cell lysates (in vitro); endogenous in cells; host or cells: soluble proteome of human cancer cell lines (MDA-MB-231; Ramos and Jurkat also prepared)
T5 sequence (Q8TCA0 1-184): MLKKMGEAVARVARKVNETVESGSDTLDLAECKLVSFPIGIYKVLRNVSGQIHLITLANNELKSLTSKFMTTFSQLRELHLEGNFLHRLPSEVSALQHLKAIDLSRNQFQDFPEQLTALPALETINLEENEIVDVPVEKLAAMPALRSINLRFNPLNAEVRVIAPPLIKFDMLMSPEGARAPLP
In short: as §1

[6] = molecular target: T6, MRPL12 39S ribosomal protein L12, mitochondrial (Homo sapiens, UniProt P52815); details: for isoTOP-ABPP ratio (R) at liganded lysine P52815_K87 / isoTOP-ABPP reactivity ratio at lysine P52815_K87: 50 uM, in vitro; for isoTOP-ABPP ratio (R) at liganded lysine P52815_K87: sol, 231; for isoTOP-ABPP ratio, lysine P52815_K87: 50 uM_231_sol_in vitro, possible other lysine B4DLN1_K87, P52815_K91; for isoTOP-ABPP reactivity ratio at lysine P52815_K87: 231 sol
T6 construct: isoTOP-ABPP experiments performed in cell lysates (in vitro); endogenous in cells; host or cells: soluble proteome of human cancer cell lines (MDA-MB-231, Ramos, Jurkat)
In short: as §1

[7] = molecular target: T7, ETFA Electron transfer flavoprotein subunit alpha, mitochondrial (Homo sapiens, UniProt P13804); details: for isoTOP-ABPP ratio (R) at liganded lysine P13804_K139 / isoTOP-ABPP reactivity ratio at lysine P13804_K139: 50 uM, in vitro; for isoTOP-ABPP ratio (R) at liganded lysine P13804_K139: sol, 231; for isoTOP-ABPP reactivity ratio at lysine P13804_K139: 231 sol
T7 construct: isoTOP-ABPP experiments performed in cell lysates (in vitro); endogenous in cells; host or cells: soluble proteome of human cancer cell lines (MDA-MB-231; Ramos and Jurkat also prepared)
T7 sequence (P13804 20-333): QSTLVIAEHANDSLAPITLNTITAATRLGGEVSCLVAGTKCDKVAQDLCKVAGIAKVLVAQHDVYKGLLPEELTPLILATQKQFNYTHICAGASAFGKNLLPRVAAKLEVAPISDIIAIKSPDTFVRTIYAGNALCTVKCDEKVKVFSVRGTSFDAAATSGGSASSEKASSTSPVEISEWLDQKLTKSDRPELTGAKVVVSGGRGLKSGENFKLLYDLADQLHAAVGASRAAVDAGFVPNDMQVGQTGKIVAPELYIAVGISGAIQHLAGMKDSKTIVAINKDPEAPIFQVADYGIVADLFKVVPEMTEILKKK
T7 sequence (P38117 2-255 partner limits assumed): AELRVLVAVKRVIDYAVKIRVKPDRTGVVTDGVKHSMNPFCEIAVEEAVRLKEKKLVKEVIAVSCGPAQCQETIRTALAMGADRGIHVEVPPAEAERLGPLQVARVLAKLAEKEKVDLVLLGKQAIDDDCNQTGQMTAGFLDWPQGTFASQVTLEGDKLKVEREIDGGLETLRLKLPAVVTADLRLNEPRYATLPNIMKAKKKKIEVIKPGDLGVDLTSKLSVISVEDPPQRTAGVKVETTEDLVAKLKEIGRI
In short: as §1

Structure (SMILES): O=C(Oc1ccc([N+](=O)[O-])cc1[N+](=O)[O-])C(c1ccccc1)(c1ccccc1)c1ccccc1 [fragment 42, 2,4-Dinitrophenyl 2,2,2-triphenylacetate]
- isoTOP-ABPP ratio (R) at liganded lysine Q16864_K6 [1]: 1.0
- isoTOP-ABPP ratio (R) at liganded lysine P24941_K33 [2]: 0.9
- isoTOP-ABPP ratio (R) at liganded lysine P26641_K227 [3]: 0.7
- isoTOP-ABPP ratio (R) at liganded lysine P20839_K208 [4]: 1.2
- isoTOP-ABPP ratio (R) at liganded lysine Q8TCA0_K43 ([5]; 50 uM, in vitro, sol, 231): 1.3
- isoTOP-ABPP ratio (R) at liganded lysine P52815_K87 [6]: 1.0

Structure (SMILES): CC(C)(C)OC(=O)NCCCC(=O)Oc1ccc([N+](=O)[O-])cc1[N+](=O)[O-] [fragment 41, 2,4-Dinitrophenyl 4-((tert-butoxycarbonyl)amino)butanoate]
- isoTOP-ABPP ratio (R) at liganded lysine Q16864_K6 [1]: 1.0
- isoTOP-ABPP ratio (R) at liganded lysine P24941_K33 [2]: 1.0
- isoTOP-ABPP ratio (R) at liganded lysine P26641_K227 [3]: 0.8
- isoTOP-ABPP ratio (R) at liganded lysine P13804_K139 [7]: 20.0
- isoTOP-ABPP ratio (R) at liganded lysine P20839_K208 [4]: 1.2
- isoTOP-ABPP ratio (R) at liganded lysine P52815_K87 [6]: 4.1

- isoTOP-ABPP ratio, lysine P13804_K139 ([7]; 50 uM_231_sol_in vitro): 1.1
- isoTOP-ABPP ratio, lysine P20839_K208 ([4]; 50 uM_231_sol_in vitro): 1.2
- isoTOP-ABPP ratio, lysine P52815_K87 [6]: 1.1
Structure (SMILES): O=C(Oc1c(F)c(F)c(C(F)(F)F)c(F)c1F)c1cc(C(F)(F)F)cc(C(F)(F)F)c1 [fragment 47, 2,3,5,6-Tetrafluoro-4-(trifluoromethyl)phenyl 3,5-bis(trifluoromethyl)benzoate]

Structure (SMILES): O=C(CCc1cn(-c2ccccc2)nc1-c1ccccc1)Oc1ccc([N+](=O)[O-])cc1[N+](=O)[O-] [fragment 29, 2,4-Dinitrophenyl 3-(1,3-diphenyl-1H-pyrazol-4-yl)propanoate]
- isoTOP-ABPP reactivity ratio at lysine Q16864_K6 [1]: 0.8
- isoTOP-ABPP reactivity ratio at lysine P24941_K33 [2]: 0.9
- isoTOP-ABPP reactivity ratio at lysine P26641_K227 [3]: 0.7
- isoTOP-ABPP reactivity ratio at lysine P13804_K139 [7]: 0.8
- isoTOP-ABPP reactivity ratio at lysine P20839_K208 [4]: 1.3
- isoTOP-ABPP reactivity ratio at lysine Q8TCA0_K43 ([5]; 50 uM, in vitro): 1.3
- isoTOP-ABPP reactivity ratio at lysine P52815_K87 [6]: 1.1

Structure (SMILES): O=C(CCc1ccc2c(c1)OCO2)Oc1ccc([N+](=O)[O-])cc1[N+](=O)[O-] [fragment 45, 2,4-Dinitrophenyl 3-(benzo[d][1,3]dioxol-5-yl)propanoate]
- isoTOP-ABPP ratio, lysine Q16864_K6 ([1]; 50 uM_231_sol_in vitro): 1.0
- isoTOP-ABPP ratio, lysine P24941_K33 ([2]; 50 uM_231_sol_in vitro): 4.6
- isoTOP-ABPP ratio, lysine P26641_K227 ([3]; 50 uM_231_sol_in vitro): 0.6
- isoTOP-ABPP ratio, lysine P13804_K139 ([7]; 50 uM_231_sol_in vitro): 1.0
- isoTOP-ABPP ratio, lysine P20839_K208 ([4]; 50 uM_231_sol_in vitro): 1.5
- isoTOP-ABPP ratio, lysine Q8TCA0_K43 ([5]; 50 uM_231_sol_in vitro): 0.8
- isoTOP-ABPP ratio, lysine P52815_K87 [6]: 1.8

Structure (SMILES): O=C(CC12CC3CC(CC(C3)C1)C2)Oc1ccc([N+](=O)[O-])cc1[N+](=O)[O-] [fragment 38, 2,4-Dinitrophenyl 2-(adamantan-1-yl)acetate]
- isoTOP-ABPP ratio (R) at liganded lysine Q16864_K6 [1]: 1.0
- isoTOP-ABPP ratio (R) at liganded lysine P24941_K33 [2]: 0.9
- isoTOP-ABPP ratio (R) at liganded lysine P20839_K208 [4]: 1.2
- isoTOP-ABPP ratio (R) at liganded lysine P52815_K87 [6]: 0.9

- isoTOP-ABPP ratio, lysine Q16864_K6 ([1]; 100 uM_231_sol_in vitro): 1.4
- isoTOP-ABPP ratio, lysine P24941_K33 ([2]; 100 uM_231_sol_in vitro): 2.3
- isoTOP-ABPP ratio, lysine P26641_K227 ([3]; 100 uM_231_sol_in vitro): 1.2
- isoTOP-ABPP ratio, lysine P13804_K139 ([7]; 100 uM_231_sol_in vitro): 1.1
- isoTOP-ABPP ratio, lysine P20839_K208 ([4]; 100 uM_231_sol_in vitro): 20.0
- isoTOP-ABPP ratio, lysine Q8TCA0_K43 ([5]; 100 uM_231_sol_in vitro): 1.3
Structure (SMILES): CC(C)(C)OC(=O)N=C(NC(=O)OC(C)(C)C)n1cccn1 [fragment 50, reference compound]

Structure (SMILES): O=C(Oc1ccc([N+](=O)[O-])cc1[N+](=O)[O-])C(c1ccccc1)c1ccccc1 [fragment 30, 2,4-Dinitrophenyl 2,2-diphenylacetate]
- isoTOP-ABPP reactivity ratio at lysine Q16864_K6 [1]: 20.0
- isoTOP-ABPP reactivity ratio at lysine P26641_K227 [3]: 0.9
- isoTOP-ABPP reactivity ratio at lysine P13804_K139 [7]: 20.0
- isoTOP-ABPP reactivity ratio at lysine P20839_K208 [4]: 1.6
- isoTOP-ABPP reactivity ratio at lysine Q8TCA0_K43 ([5]; 50 uM, in vitro): 1.5

Structure (SMILES): O=C(Oc1ccc([N+](=O)[O-])cc1[N+](=O)[O-])c1ccc(-c2ccccc2)cc1 [fragment 37, 2,4-Dinitrophenyl [1,1′-biphenyl]-4-carboxylate]
- isoTOP-ABPP ratio (R) at liganded lysine Q16864_K6 [1]: 1.0
- isoTOP-ABPP ratio (R) at liganded lysine P24941_K33 [2]: 0.9
- isoTOP-ABPP ratio (R) at liganded lysine P13804_K139 [7]: 0.9
- isoTOP-ABPP ratio (R) at liganded lysine P20839_K208 [4]: 1.4

Structure (SMILES): COc1cc(CCC(=O)Oc2ccc([N+](=O)[O-])cc2[N+](=O)[O-])cc(OC)c1OC [fragment 33, 2,4-Dinitrophenyl 3-(3,4,5-trimethoxyphenyl)propanoate]
- isoTOP-ABPP reactivity ratio at lysine Q16864_K6 [1]: 0.8
- isoTOP-ABPP reactivity ratio at lysine P24941_K33 [2]: 0.7
- isoTOP-ABPP reactivity ratio at lysine P26641_K227 [3]: 0.7
- isoTOP-ABPP reactivity ratio at lysine P13804_K139 [7]: 0.7
- isoTOP-ABPP reactivity ratio at lysine P20839_K208 [4]: 1.2
- isoTOP-ABPP reactivity ratio at lysine P52815_K87 [6]: 2.1
